# Experimental data published in patent publication US20090087376A1, “Heterocyclic Dye Compounds For In Vivo Imaging And Diagnosis Of Alzheimer's Disease” (The General Hospital Corporation, priority 2004, published 2009).
# What was measured:
# β-amyloid plaques = assay: Plaque specificity of dye compounds; assay type: binding
# Enter CNS (BBB) = details: in vivo
# [1] = Near-IR spectra of dye compounds; assay type: physicochemical
SMILES,Plaque specificity (β-amyloid plaques),Enter CNS (BBB) (Enter CNS (BBB)),Near-IR spectra [1]
CC1(C)C(/C=C/c2ccc(-c3ccc(-c4ccc(O)cc4)s3)s2)=[N+](CCCS(=O)(=O)[O-])c2ccccc21 [NIAD1],Yes,Yes/No,Yes
C[N+]1=C(/C=C/c2ccc(-c3ccc(-c4ccc(O)cc4)s3)s2)C(C)(C)c2ccccc21.[Cl-] [NIAD3],Yes,No,Yes
CN(C)c1ccc(-c2sc(-c3ccc(C=C(C#N)C#N)s3)c3ccccc23)cc1 [NIAD6],Yes,No,Yes
CN(C)c1ccc(-c2ccc(-c3ccc(C=C4C(=C(C#N)C#N)c5ccccc5C4=C(C#N)C#N)s3)s2)cc1 [NIAD7],Yes,Yes,No
